Laboratory results as given in patent publication US20190152946A1, “Novel Compounds” (GlaxoSmithKline Intellectual Property Development Limited, priority 2016, published 2019).

Key:
Assay type in all cases: cell-based
MAPK9 = biological target: T1, MAPK9 (Homo sapiens, UniProt P45984); assay: Expression proteomics in THP-1 cells, MAPK9 level; details: MAPK9 protein log2 fold change, 24 h, 1.0 μM
T1 construct: endogenous in cells; host or cells: THP-1
Description: (§1) THP-1 cells were seeded at a concentration of 3×10^6 cells in T175 flasks with 60 mL growth medium (RPM11640+10% FBS). […] of a 10× compound solution prepared in growth medium (DMSO), IAP PROTAC) was added and the cells were treated for the indicated time points (6 or 24 h) at 37° C., 5% CO2. For harvesting the cells were collected into falcon tubes on ice, centrifuged and washed twice in cold PBS (Life technologies). After the last washing step the supernatant was removed and the pellets were snap-frozen in liquid N2 and stored at −80° C. and lysed in 2% SDS for 3 min at 95° C. in a thermomixer (Thermo Fisher Scientific), followed by digestion of DNA with Benzonase at 37° C. for 1.5 h. Lysate was cleared by centrifugation an protein concentration in supernatant was determined by BCA assay.
(§2) Leukemia 25, 89-100 (2011).
(§3) Samples were dried in vacuo and resuspended in 0.05% trifluoroacetic acid in water. […]
(§4) Reporter ion intensities were read from raw data and multiplied with ion accumulation times (the unit is milliseconds) so as to yield a measure proportional to the number of ions;
(§5) Nat Biotech 29, 255-265 (2011). this measure is referred to as ion area Savitski, M. M. et al. Delayed Fragmentation and Optimized Isolation Width Settings for Improvement of Protein Identification and Accuracy of Isobaric Mass Tag Quantification on Orbitrap-Type Mass Spectrometers. […]

BTK = biological target: T2, BTK (Homo sapiens, UniProt Q06187); assay: Expression proteomics in THP-1 cells, BTK level; details: BTK protein log2 fold change, 24 h, 1.0 μM
T2 construct: endogenous in cells; host or cells: THP-1
T2 sequence (Q06187 whole entry): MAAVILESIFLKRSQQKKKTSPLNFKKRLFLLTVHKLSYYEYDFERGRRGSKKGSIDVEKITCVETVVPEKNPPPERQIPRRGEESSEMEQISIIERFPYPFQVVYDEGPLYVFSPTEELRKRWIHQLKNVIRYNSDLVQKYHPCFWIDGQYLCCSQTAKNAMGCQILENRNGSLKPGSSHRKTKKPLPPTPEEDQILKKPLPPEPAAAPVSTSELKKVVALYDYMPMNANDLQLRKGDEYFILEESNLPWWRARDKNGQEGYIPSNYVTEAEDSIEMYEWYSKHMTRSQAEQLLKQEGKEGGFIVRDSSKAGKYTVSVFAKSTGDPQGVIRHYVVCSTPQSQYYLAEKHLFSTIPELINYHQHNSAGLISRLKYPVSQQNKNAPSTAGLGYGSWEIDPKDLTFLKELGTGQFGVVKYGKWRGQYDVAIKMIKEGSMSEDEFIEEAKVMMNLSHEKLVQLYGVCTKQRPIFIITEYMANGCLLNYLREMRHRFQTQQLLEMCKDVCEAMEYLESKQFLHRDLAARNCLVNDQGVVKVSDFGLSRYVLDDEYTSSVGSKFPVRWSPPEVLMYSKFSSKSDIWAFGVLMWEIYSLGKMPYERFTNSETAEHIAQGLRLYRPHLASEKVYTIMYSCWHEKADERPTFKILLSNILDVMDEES
Description: as §1, §2, §3, §4, §5

PTK2 = biological target: T3, PTK2 (Homo sapiens, UniProt Q05397); assay: Expression proteomics in THP-1 cells, PTK2 level; details: PTK2 protein log2 fold change, 24 h, 1.0 μM
T3 construct: endogenous in cells; host or cells: THP-1
T3 sequence (Q05397 whole entry): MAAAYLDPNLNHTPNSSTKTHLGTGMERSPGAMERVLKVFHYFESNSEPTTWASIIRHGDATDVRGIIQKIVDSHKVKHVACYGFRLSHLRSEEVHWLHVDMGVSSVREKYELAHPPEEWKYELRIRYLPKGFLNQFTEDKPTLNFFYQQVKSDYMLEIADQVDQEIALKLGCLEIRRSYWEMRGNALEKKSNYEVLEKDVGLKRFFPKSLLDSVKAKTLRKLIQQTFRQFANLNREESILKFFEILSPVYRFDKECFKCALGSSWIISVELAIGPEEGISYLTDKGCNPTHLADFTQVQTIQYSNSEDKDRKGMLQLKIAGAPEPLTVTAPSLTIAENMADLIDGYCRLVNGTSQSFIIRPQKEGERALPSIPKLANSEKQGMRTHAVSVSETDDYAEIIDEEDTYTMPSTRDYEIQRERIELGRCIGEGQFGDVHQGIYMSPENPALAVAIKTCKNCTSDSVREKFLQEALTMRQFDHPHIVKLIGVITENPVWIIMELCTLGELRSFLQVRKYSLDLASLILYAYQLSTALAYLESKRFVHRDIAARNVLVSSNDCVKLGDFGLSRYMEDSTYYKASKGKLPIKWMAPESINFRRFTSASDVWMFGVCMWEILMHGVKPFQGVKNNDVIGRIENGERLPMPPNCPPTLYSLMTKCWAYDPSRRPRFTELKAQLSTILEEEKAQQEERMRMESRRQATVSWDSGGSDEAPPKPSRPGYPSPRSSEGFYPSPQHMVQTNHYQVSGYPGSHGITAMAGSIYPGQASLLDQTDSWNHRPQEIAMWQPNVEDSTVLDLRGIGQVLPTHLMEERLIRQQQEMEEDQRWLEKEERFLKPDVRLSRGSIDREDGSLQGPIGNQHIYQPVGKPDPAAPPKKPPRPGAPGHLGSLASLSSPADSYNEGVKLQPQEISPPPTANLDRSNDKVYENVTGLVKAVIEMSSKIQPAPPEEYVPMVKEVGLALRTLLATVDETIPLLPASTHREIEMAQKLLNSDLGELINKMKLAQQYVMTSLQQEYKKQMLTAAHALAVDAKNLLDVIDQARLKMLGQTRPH
Description: as §1, §2, §3, §4, §5

IRAK3 = biological target: T4, IRAK3 (Homo sapiens, UniProt Q9Y616); assay: Expression proteomics in THP-1 cells, IRAK3 level; details: IRAK3 protein log2 fold change, 24 h, 1.0 μM
T4 construct: endogenous in cells; host or cells: THP-1
T4 sequence (Q9Y616 1-596): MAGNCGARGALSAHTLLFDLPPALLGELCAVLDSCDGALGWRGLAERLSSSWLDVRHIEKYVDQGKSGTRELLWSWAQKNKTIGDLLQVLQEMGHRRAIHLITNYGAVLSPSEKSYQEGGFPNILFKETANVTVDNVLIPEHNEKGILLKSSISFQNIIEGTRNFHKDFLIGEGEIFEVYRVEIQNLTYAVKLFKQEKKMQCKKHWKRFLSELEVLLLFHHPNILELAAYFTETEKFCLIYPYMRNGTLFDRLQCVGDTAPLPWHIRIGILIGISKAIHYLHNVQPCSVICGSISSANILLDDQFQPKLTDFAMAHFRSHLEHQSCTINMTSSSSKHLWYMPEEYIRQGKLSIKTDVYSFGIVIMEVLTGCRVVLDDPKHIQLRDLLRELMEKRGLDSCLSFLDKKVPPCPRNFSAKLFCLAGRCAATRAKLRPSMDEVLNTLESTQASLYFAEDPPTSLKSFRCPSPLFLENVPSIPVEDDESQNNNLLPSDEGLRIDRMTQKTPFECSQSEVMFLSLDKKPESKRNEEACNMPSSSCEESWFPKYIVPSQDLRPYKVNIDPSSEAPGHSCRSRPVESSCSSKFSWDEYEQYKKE
Description: as §1, §2, §3, §4, §5

T1 sequence (P45984 whole entry): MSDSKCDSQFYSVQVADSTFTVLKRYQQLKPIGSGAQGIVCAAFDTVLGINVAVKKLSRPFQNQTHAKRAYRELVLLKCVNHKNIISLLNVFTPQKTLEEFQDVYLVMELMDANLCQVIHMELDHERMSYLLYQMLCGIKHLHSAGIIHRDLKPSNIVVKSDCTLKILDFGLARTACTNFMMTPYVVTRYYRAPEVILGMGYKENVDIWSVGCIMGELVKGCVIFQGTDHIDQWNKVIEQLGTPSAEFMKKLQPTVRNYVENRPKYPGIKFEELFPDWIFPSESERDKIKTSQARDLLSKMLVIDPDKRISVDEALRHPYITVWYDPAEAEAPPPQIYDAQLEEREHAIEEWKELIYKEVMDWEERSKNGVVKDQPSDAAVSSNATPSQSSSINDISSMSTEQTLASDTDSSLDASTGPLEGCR

CNC(=O)c1ccccc1Nc1nc(Nc2ccc(N3CCN(CCOCCOCCOCCOc4ccc5c(c4)CN(C(=O)[C@@H](NC(=O)[C@H](C)NC)C(C)(C)C)[C@H](C(=O)N[C@@H]4CCCc6ccccc64)C5)CC3)cc2)ncc1Cl [IAP, (S)-7-(2-(2-(2-(2-(4-(4-((5-Chloro-4-((2-(methylcarbamoyl)phenyl)amino)pyrimidin-2-yl)amino)phenyl)piperazin-1-yl)ethoxy)ethoxy)ethoxy)ethoxy)-2-((S)-3,3-dimethyl-2-((S)-2-(methylamino)propanamido)butanoyl)-N-((R)-1,2,3,4-tetrahydronaphthalen-1-yl)-1,2,3,4-tetrahydroisoquinoline-3-carboxamide]
log2fc_IAP_24 h_1.0 μM_n1 (MAPK9; replicate n1): −1.22 | log2fc_IAP_24 h_1.0 μM_n2 (MAPK9; replicate n2): −1.31 | log2fc_IAP_24 h_1.0 μM_n1 (BTK; replicate n1): −1.53 | log2fc_IAP_24 h_1.0 μM_n2 (BTK; replicate n2): −1.66 | log2fc_IAP_24 h_1.0 μM_n1 (PTK2; replicate n1): −0.90 | log2fc_IAP_24 h_1.0 μM_n2 (PTK2; replicate n2): −1.00 | log2fc_IAP_24 h_1.0 μM_n1 (IRAK3; replicate n1): −2.28 | log2fc_IAP_24 h_1.0 μM_n2 (IRAK3; replicate n2): −2.47
